Source: ChEMBL document CHEMBL4138123, “Design, synthesis and biological evaluation of novel pyrazolochalcones as potential modulators of PI3K/Akt/mTOR pathway and inducers of apoptosis in breast cancer cells” (Eur J Med Chem, 2017)

Tests used:
Type in all cases: functional
[1] = tested on: HCT-15; experiment: Cytotoxicity against human HCT15 cells assessed as cell growth at 10 uM after 48 hrs by sulforhodamine B assay relative to control; conditions: HCT-15, 48 h, read-out: Activity
[2] = tested on: NCI-H460; experiment: Cytotoxicity against human NCI-H460 cells assessed as growth inhibition after 48 hrs by sulforhodamine B assay; conditions: NCI-H460, 48 h
[3] = tested on: OVCAR-4; experiment: Cytotoxicity against human OVCAR4 cells assessed as growth inhibition after 48 hrs by sulforhodamine B assay; conditions: OVCAR-4, 48 h
[4] = tested on: RXF 393; experiment: Cytotoxicity against human RXF393 cells assessed as growth inhibition after 48 hrs by sulforhodamine B assay; conditions: RXF 393, 48 h
[5] = tested on: OVCAR-3; experiment: Cytotoxicity against human OVCAR3 cells assessed as cell growth at 10 uM after 48 hrs by sulforhodamine B assay relative to control; conditions: OVCAR-3, 48 h, read-out: Activity
[6] = tested on: A549; experiment: Cytotoxicity against human A549/ATCC cells assessed as growth inhibition after 48 hrs by sulforhodamine B assay; conditions: A549, 48 h
[7] = tested on: SN12C; experiment: Cytotoxicity against human SN12C cells assessed as cell growth at 0.01 uM after 48 hrs by sulforhodamine B assay relative to control; conditions: read-out: Activity
[8] = tested on: U-251; experiment: Cytotoxicity against human U251 cells assessed as cell growth at 0.01 uM after 48 hrs by sulforhodamine B assay relative to control; conditions: U-251, 48 h, read-out: Activity
[9] = tested on: 786-0; experiment: Cytotoxicity against human 786-0 cells assessed as growth inhibition after 48 hrs by sulforhodamine B assay; conditions: 786-0, 48 h
[10] = tested on: SF-539; experiment: Cytotoxicity against human SF539 cells assessed as cell growth at 0.01 uM after 48 hrs by sulforhodamine B assay relative to control; conditions: SF-539, 48 h, read-out: Activity
[11] = tested on: 786-0; experiment: Cytotoxicity against human 786-0 cells assessed as cell growth at 0.1 uM after 48 hrs by sulforhodamine B assay relative to control; conditions: 786-0, 48 h, read-out: Activity
[12] = tested on: SW-620; experiment: Cytotoxicity against human SW620 cells assessed as cell growth at 1 uM after 48 hrs by sulforhodamine B assay relative to control; conditions: SW-620, 48 h, read-out: Activity
[13] = tested on: M14; experiment: Cytotoxicity against human M14 cells assessed as cell growth at 10 uM after 48 hrs by sulforhodamine B assay relative to control; conditions: M14, 48 h, read-out: Activity
[14] = tested on: SF-268; experiment: Cytotoxicity against human SF268 cells assessed as cell growth at 100 uM after 48 hrs by sulforhodamine B assay relative to control; conditions: SF-268, 48 h, read-out: Activity
[15] = tested on: RXF 393; experiment: Cytotoxicity against human RXF393 cells assessed as cell growth at 0.1 uM after 48 hrs by sulforhodamine B assay relative to control; conditions: RXF 393, 48 h, read-out: Activity
[16] = tested on: Hs-578T; experiment: Cytotoxicity against human Hs 578T cells assessed as cell growth at 10 uM after 48 hrs by sulforhodamine B assay relative to control; conditions: read-out: Activity
[17] = tested on: U-251; experiment: Cytotoxicity against human U251 cells assessed as cell growth at 0.1 uM after 48 hrs by sulforhodamine B assay relative to control; conditions: U-251, 48 h, read-out: Activity
[18] = tested on: HCT-15; experiment: Cytotoxicity against human HCT15 cells assessed as cell growth at 0.01 uM after 48 hrs by sulforhodamine B assay relative to control; conditions: HCT-15, 48 h, read-out: Activity
[19] = tested on: ACHN; experiment: Cytotoxicity against human ACHN cells assessed as cell growth at 0.1 uM after 48 hrs by sulforhodamine B assay relative to control; conditions: read-out: Activity
[20] = tested on: MDA-MB-468; experiment: Cytotoxicity against human MDA-MB-468 cells assessed as cell growth at 0.01 uM after 48 hrs by sulforhodamine B assay relative to control; conditions: MDA-MB-468, 48 h, read-out: Activity
[21] = tested on: NCI-H522; experiment: Cytotoxicity against human NCI-H522 cells assessed as cell growth at 0.1 uM after 48 hrs by sulforhodamine B assay relative to control; conditions: NCI-H522, 48 h, read-out: Activity
[22] = tested on: HL-60(TB); experiment: Cytotoxicity against human HL-60(TB) cells assessed as cell growth at 0.01 uM after 48 hrs by sulforhodamine B assay relative to control; conditions: HL-60, 48 h, read-out: Activity
[23] = tested on: OVCAR-5; experiment: Cytotoxicity against human OVCAR5 cells assessed as cell growth at 10 uM after 48 hrs by sulforhodamine B assay relative to control; conditions: OVCAR-5, 48 h, read-out: Activity
[24] = tested on: Hs-578T; experiment: Cytotoxicity against human Hs 578T cells assessed as cell growth at 100 uM after 48 hrs by sulforhodamine B assay relative to control; conditions: read-out: Activity
[25] = tested on: HT-29; experiment: Cytotoxicity against human HT-29 cells assessed as cell growth at 100 uM after 48 hrs by sulforhodamine B assay relative to control; conditions: HT-29, 48 h, read-out: Activity
[26] = tested on: NCI-H460; experiment: Cytotoxicity against human NCI-H460 cells assessed as cell growth at 10 uM after 48 hrs by sulforhodamine B assay relative to control; conditions: NCI-H460, 48 h, read-out: Activity
[27] = tested on: M14; experiment: Cytotoxicity against human M14 cells assessed as cell growth at 100 uM after 48 hrs by sulforhodamine B assay relative to control; conditions: M14, 48 h, read-out: Activity
[28] = tested on: A549; experiment: Cytotoxicity against human A549/ATCC cells assessed as cell growth at 0.01 uM after 48 hrs by sulforhodamine B assay relative to control; conditions: A549, 48 h, read-out: Activity
[29] = tested on: DU-145; experiment: Cytotoxicity against human DU145 cells assessed as cell growth at 10 uM after 48 hrs by sulforhodamine B assay relative to control; conditions: DU-145, 48 h, read-out: Activity
[30] = tested on: IGROV-1; experiment: Cytotoxicity against human IGROV1 cells assessed as cell growth at 1 uM after 48 hrs by sulforhodamine B assay relative to control; conditions: IGROV-1, 48 h, read-out: Activity
[31] = tested on: COLO 205; experiment: Cytotoxicity against human COLO205 cells assessed as cell growth at 100 uM after 48 hrs by sulforhodamine B assay relative to control; conditions: COLO 205, 48 h, read-out: Activity
[32] = tested on: CCRF-CEM; experiment: Cytotoxicity against human CCRF-CEM cells assessed as cell growth at 100 uM after 48 hrs by sulforhodamine B assay relative to control; conditions: read-out: Activity
[33] = tested on: NCI-H226; experiment: Cytotoxicity against human NCI-H226 cells assessed as cell growth at 1 uM after 48 hrs by sulforhodamine B assay relative to control; conditions: NCI-H226, 48 h, read-out: Activity
[34] = tested on: NCI-H522; experiment: Cytotoxicity against human NCI-H522 cells assessed as cell growth at 1 uM after 48 hrs by sulforhodamine B assay relative to control; conditions: NCI-H522, 48 h, read-out: Activity
[35] = tested on: SR; experiment: Cytotoxicity against human SR cells assessed as growth inhibition after 48 hrs by sulforhodamine B assay; conditions: for CC50: read-out: LC50 (the source's name)
[36] = tested on: SK-MEL-5; experiment: Cytotoxicity against human SK-MEL-5 cells assessed as cell growth at 1 uM after 48 hrs by sulforhodamine B assay relative to control; conditions: SK-MEL-5, 48 h, read-out: Activity

**Q.** COc1ccc(C(=O)/C=C/c2cc(-c3cc(OC)c(OC)c(OC)c3)n[nH]2)cc1OC was tested. Which growth at 10 µM [1] did it give?
**A.** -78%

**Q.** And the LC50 [2]?
**A.** 7.86 µM

**Q.** And the TGI [2]?
**A.** 3.33 µM

**Q.** What about the LC50 [3] of the same compound?
**A.** 49.9 µM

**Q.** What about the TGI [3] of the same compound?
**A.** 16.6 µM

**Q.** And the LC50 (concentration killing 50% of cells) [4]?
**A.** 5.23 µM

**Q.** And the TGI [4]?
**A.** 2.66 µM

**Q.** And the growth at 10 µM [5]?
**A.** -91%

**Q.** And the LC50 (concentration giving 50% net cell kill) [6]?
**A.** 15.7 µM

**Q.** And the TGI [6]?
**A.** 4.59 µM

**Q.** What about the growth at 0.01 µM [7] of the same compound?
**A.** 99%

**Q.** And the growth at 0.01 µM [8]?
**A.** 96%

**Q.** And the LC50 [9]?
**A.** 5.82 µM

**Q.** And the TGI [9]?
**A.** 2.86 µM

**Q.** And the growth at 0.01 µM [10]?
**A.** 97%

**Q.** What about the growth at 0.1 µM [11] of the same compound?
**A.** 94%

**Q.** And the growth at 1 µM [12]?
**A.** 70%

**Q.** What about the growth at 10 µM [13] of the same compound?
**A.** -72%

**Q.** What about the growth at 100 µM [14] of the same compound?
**A.** -88%

**Q.** What about the growth at 0.1 µM [15] of the same compound?
**A.** 100%

**Q.** And the growth at 10 µM [16]?
**A.** -9%

**Q.** What about the growth at 0.1 µM [17] of the same compound?
**A.** 95%

**Q.** What about the growth at 0.01 µM [18] of the same compound?
**A.** 97%

**Q.** What about the growth at 0.1 µM [19] of the same compound?
**A.** 97%

**Q.** What about the growth at 0.01 µM [20] of the same compound?
**A.** 89%

**Q.** What about the growth at 0.1 µM [21] of the same compound?
**A.** 91%

**Q.** What about the growth at 0.01 µM [22] of the same compound?
**A.** 103%

**Q.** What about the growth at 10 µM [23] of the same compound?
**A.** -93%

**Q.** What about the growth at 100 µM [24] of the same compound?
**A.** -15%

**Q.** What about the growth at 100 µM [25] of the same compound?
**A.** -81%

**Q.** And the growth at 10 µM [26]?
**A.** -64%

**Q.** What about the growth at 100 µM [27] of the same compound?
**A.** -68%

**Q.** What about the growth at 0.01 µM [28] of the same compound?
**A.** 98%

**Q.** And the growth at 10 µM [29]?
**A.** -89%

**Q.** And the growth at 1 µM [30]?
**A.** 96%

**Q.** And the growth at 100 µM [31]?
**A.** -75%

**Q.** What about the growth at 100 µM [32] of the same compound?
**A.** -15%

**Q.** What about the growth at 1 µM [33] of the same compound?
**A.** 89%

**Q.** And the growth at 1 µM [34]?
**A.** -63%

**Q.** What about the TGI [35] of the same compound?
**A.** > 100 µM

**Q.** What about the CC50 [35] of the same compound?
**A.** > 100 µM

**Q.** What about the growth at 1 µM [36] of the same compound?
**A.** 91%

**Q.** Which results are given for COc1ccc(-c2cc(/C=C/C(=O)c3ccc(N)cc3)[nH]n2)cc1?
**A.** growth at 10 µM [1]: -40%; GI50 [2]: 2.07 µM; LC50 [2]: 20.9 µM; TGI [2]: 4.95 µM; GI50 [3]: 1.08 µM; LC50 [3]: 51.2 µM; TGI [3]: 8.01 µM; GI50 [4]: 1.67 µM; LC50 (concentration killing 50% of cells) [4]: 15 µM; TGI [4]: 4.19 µM; growth at 10 µM [5]: -70%; GI50 [6]: 2.55 µM; LC50 (concentration giving 50% net cell kill) [6]: 46.9 µM; TGI [6]: 10.2 µM; growth at 0.01 µM [7]: 93%; growth at 0.01 µM [8]: 97%; GI50 [9]: 2.12 µM; LC50 [9]: 58.1 µM; TGI [9]: 5.69 µM; growth at 0.01 µM [10]: 98%; growth at 0.1 µM [11]: 95%; growth at 1 µM [12]: 72%; growth at 10 µM [13]: -24%; growth at 100 µM [14]: -61%; growth at 0.1 µM [15]: 88%; growth at 10 µM [16]: 22%; growth at 0.1 µM [17]: 90%; growth at 0.01 µM [18]: 97%; growth at 0.1 µM [19]: 105%; growth at 0.01 µM [20]: 103%; growth at 0.1 µM [21]: 85%; growth at 0.01 µM [22]: 96%; growth at 10 µM [23]: -41%; growth at 100 µM [24]: -35%; growth at 100 µM [25]: -56%; growth at 10 µM [26]: -40%; growth at 100 µM [27]: -71%; growth at 0.01 µM [28]: 101%; growth at 10 µM [29]: -55%; growth at 1 µM [30]: 89%; growth at 100 µM [31]: -74%; growth at 100 µM [32]: -68%; growth at 1 µM [33]: 86%; growth at 1 µM [34]: 61%; GI50 [35]: 0.79 µM; TGI [35]: 6.09 µM; CC50 [35]: 60.1 µM; growth at 1 µM [36]: 90%
